This note sets out measurements from patent US20040023974A1, “Cyclic sulfamide derivatives and methods of use” (priority 2002, published 2004).

Structures can show the parent of a compound that is named as a salt. Bounds are passed on as bounds.

Compound `COc1ccc(N2CC(=O)NS2(=O)=O)c(OC)c1.[K]` returned a melting point of more than 260 °C.
Under `CCn1c(C)nc2cc(CN3CC(=O)NS3(=O)=O)ccc21` (as salt: TFA) [Example 11, 5-(1-Ethyl-2-methyl-1H-benzoimidazol-5-ylmethyl)-1,1-dioxo-1-1,2,5-thiadiazolidin-3-one] stands 255 to 265 °C; under `O=C1CN(Cc2cccc(I)c2)S(=O)(=O)N1` [Example 4, 5-(3-Iodobenzyl)-1,1-dioxo-1,2,5-thiadiazolidin-3-one], 101 to 103 °C; under `CCOC(=O)C(Cc1ccc(CN2CC(=O)NS2(=O)=O)cc1)(NC(C)=O)C(=O)OCC` [Example 10-23, 2-Acetylamino-2-[4-(1,1,4-trioxo-1,2,5-thiadiazolidin-2-ylmethyl)-benzyl]-malonic acid diethyl ester], 197 °C.
The result for `Cc1nc2cc(CN3CC(=O)NS3(=O)=O)ccc2n1CCC(C)C` [Example 12, 5-[2-Methyl-1-(3-methyl-butyl)-1H-benzoimidazol-5-ylmethyl]-1,1-dioxo-1-1,2,5-thiadiazolidin-3-one] reads 70 to 75 °C; that for `Cc1cc(OCC(=O)NCc2ccccc2)ccc1N1CC(=O)NS1(=O)=O` [Example 43, N-Benzyl-2-[3-methyl-4-(1,1,4-trioxo-[1,2,5]thiadiazolidin-2-yl)-phenoxy]-acetamide], 70 to 90 °C; that for `O=C1CN(c2ccc(CC3NC(=O)c4ccccc4NC3=O)cc2O)S(=O)(=O)N1` (centres unmarked) [Example 44, 3-[3-Hydroxy-4-(1,1,4-trioxo-[1,2,5]thiadiazolidin-2-yl)-benzyl]-3,4-dihydro-1H-benzo[1,4]diazepine-2,5-dione], 180 °C.
Under `O=C1CN(c2ccc(I)cc2)S(=O)(=O)N1` [Example 45, 5-(4-Iodo-phenyl)-1,1-dioxo-1,2,5-thiadiazolidin-3-one] stands 191 to 193 °C.

As usually defined, the melting point is the temperature of the solid-liquid transition.
